These results are taken from US9403802B2, “Heterocyclic compound and use therefor” (Takeda Pharmaceutical Company Limited, priority 2012, dated 2016).

Where two headings read alike, the source gives them in different places.

The target in this assay is T1, human M1 receptor (hCHRM1) (Homo sapiens, UniProt P11229).
T1 construct: expressed in transfected cells; host or cells: CHO-K1
T1 sequence (P11229 1-460): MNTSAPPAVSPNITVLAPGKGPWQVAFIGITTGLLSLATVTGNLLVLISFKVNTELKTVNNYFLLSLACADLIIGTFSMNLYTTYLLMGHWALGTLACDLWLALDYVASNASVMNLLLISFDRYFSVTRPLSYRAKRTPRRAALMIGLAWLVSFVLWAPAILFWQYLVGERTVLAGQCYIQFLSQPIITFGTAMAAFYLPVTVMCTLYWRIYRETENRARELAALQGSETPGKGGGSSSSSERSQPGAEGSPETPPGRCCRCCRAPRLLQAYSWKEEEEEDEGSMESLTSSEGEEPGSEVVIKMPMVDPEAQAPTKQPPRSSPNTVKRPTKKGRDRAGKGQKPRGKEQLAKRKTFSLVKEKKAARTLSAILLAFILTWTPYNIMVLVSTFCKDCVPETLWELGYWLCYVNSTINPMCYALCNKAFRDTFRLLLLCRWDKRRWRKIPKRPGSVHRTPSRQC
Nature of the assay: Measurement of cholinergic muscarinic M1 receptor positive allosteric modulator (M1PAM) activity, calcium fluorescence (FLIPRtetra). The assay is classed as cell-based. Conditions: for activity (%) at 10 μM: test compound 10 μM with acetylcholine at EC20 (final 0.6 nM), 100% = acetylcholine 1 μM, 0% = DMSO. As to the method: The activity of a test compound in the presence of acetylcholine at EC20 concentration (final concentration 0.6 nM), which affords an action corresponding to 20% of the maximum activity, was measured as M1PAM activity. The method is as follows. CHO-K1 cells forcibly expressing a human M1 receptor (hCHRM1) were plated on a 384-well black clear bottom plate (BD Falcon) at 5,000 cells/well, and cultured in an incubator at 37° C., 5% CO2 for 1 day. The medium in the cell plate was removed, and assay buffer A (Recording medium (DOJINDO LABORATORIES), 0.1% bovine serum albumin (BSA) (Wako Pure Chemical Industries, Ltd.), 2.5 μg/mL Fluo-4 AM (DOJINDO LABORATORIES), 0.08% Pluronic F127 (DOJINDO LABORATORIES), 1.25 mM probenecid (DOJINDO LABORATORIES)) containing a calcium indicator was added at 30 μL/well. The cells were left standing in the incubator at 37° C., 5% CO2 for 30 min, and further left standing at room temperature for 30 min. A test compound prepared by diluting with assay buffer B (HBSS (Invitrogen), 20 mM HEPES (Invitrogen), 0.1% BSA) containing 2.4 nM acetylcholine was added at 10 μL/well, and the fluorescence was measured by FLIPRtetra (Molecular Devices) for 1 min every 1 second. With the definition that the amount of change in the fluorescence on addition of acetylcholine (final concentration 1 μM) is 100% and that on addition of DMSO instead of a test compound is 0%, the activity (%) of the test compound and the inflection point in the concentration-dependent curve of the test compound were calculated as IP values.

Setting [1] is: inflection point of the concentration-dependent curve, with acetylcholine at EC20 (final 0.6 nM), CHO-K1 cells expressing hCHRM1, read-out: IP value.

As to `O=C(N[C@H]1CCCC[C@@H]1O)c1cn(Cc2ccc(-n3cccn3)cc2)c2c(F)ccc(F)c2c1=O` (racemic) [Example 3, 5,8-difluoro-N-[(1,2-trans)-2-hydroxycyclohexyl]-4-oxo-1-[4-(1H-pyrazol-1-yl)benzyl]-1,4-dihydroquinoline-3-carboxamide], the EC50 was 8.7 nM. Further, where the note is “CHO-K1 cells expressing hCHRM1”, the “activity (%) at 10 μM” value is recorded as 93%.

Turning to `O=C(N[C@H]1CCCC[C@@H]1O)c1nn(Cc2ccc(-n3cccn3)cc2)c2ccccc2c1=O` (racemic) [Example 4, N-[(1,2-trans)-2-hydroxycyclohexyl]-4-oxo-1-[4-(1H-pyrazol-1-yl)benzyl]-1,4-dihydrocinnoline-3-carboxamide], the EC50 under setting [1] was found to be 27 nM. Moreover, under “CHO-K1 cells expressing hCHRM1”, the “activity (%) at 10 μM” value stood at 107%.

Regarding `COc1ccc(Cn2cc(C(=O)N[C@H]3CCC[C@@H]3O)c(=O)c3c(F)ccc(F)c32)cc1` (racemic) [Example 25, 5,8-difluoro-N-[(1,2-trans)-2-hydroxycyclopentyl]-1-(4-methoxybenzyl)-4-oxo-1,4-dihydroquinoline-3-carboxamide], under setting [1], the EC50 amounted to 190 nM. Besides, for the setting “CHO-K1 cells expressing hCHRM1”, the “activity (%) at 10 μM” value was determined as 98%.

On to `COc1ccc(Cn2cc(C(=O)NC3CCCCC3CO)c(=O)c3c(F)ccc(F)c32)cc1` (racemic) [Example 65, 5,8-difluoro-N-[(1,2-trans)-2-(hydroxymethyl)-cyclohexyl]-1-(4-methoxybenzyl)-4-oxo-1,4-dihydroquinoline-3-carboxamide], for which the EC50 under setting [1] was found to be 420 nM. Also, for the setting “CHO-K1 cells expressing hCHRM1”, the “activity (%) at 10 μM” value is listed as 96%.

Regarding `COc1ccc(Cn2nc(C(=O)N[C@H]3CCOC[C@@H]3O)c(=O)c3ccccc32)cc1` (racemic) [Example 71, 1,5-anhydro-2,3-dideoxy-3-({[1-(4-methoxybenzyl)-4-oxo-1,4-dihydrocinnolin-3-yl]carbonyl}amino)-DL-threo-pentitol], the EC50 under setting [1] was 16 nM. Also, the “activity (%) at 10 μM” value (CHO-K1 cells expressing hCHRM1) stood at 97%.

Regarding `NC(=O)c1ccc(Cn2cc(C(=O)N[C@H]3CCCC[C@@H]3O)c(=O)c3ccccc32)cc1` (racemic) [Example 74, 1-(4-carbamoylbenzyl)-N-[(1,2-trans)-2-hydroxycyclohexyl]-4-oxo-1,4-dihydroquinoline-3-carboxamide], the EC50 was determined as 5.4 nM. For the setting “CHO-K1 cells expressing hCHRM1”, the “activity (%) at 10 μM” value is reported as 97%.

With `NC(=O)c1ccc(Cn2nc(C(=O)N[C@H]3CCCC[C@@H]3O)c(=O)c3ccccc32)cc1` (racemic) [Example 75, 1-(4-carbamoylbenzyl)-N-[(1,2-trans)-2-hydroxycyclohexyl]-4-oxo-1,4-dihydrocinnoline-3-carboxamide], the EC50 under setting [1] was found to be 7.7 nM. For the same compound, where the note is “CHO-K1 cells expressing hCHRM1”, the “activity (%) at 10 μM” value is on record as 99%.

Turning to `O=C(N[C@H]1CCCC[C@@H]1O)c1cn(Cc2ccc(-n3cccn3)cc2)c2c(F)cccc2c1=O` (racemic) [Example 80, 8-fluoro-N-[(1,2-trans)-2-hydroxycyclohexyl]-4-oxo-1-[4-(1H-pyrazol-1-yl)benzyl]-1,4-dihydroquinoline-3-carboxamide], the EC50 is 21 nM. Besides, where the note is “CHO-K1 cells expressing hCHRM1”, the “activity (%) at 10 μM” value is listed as 92%.

On to `CC(F)(F)c1ccc(Cn2cc(C(=O)N[C@H]3CCCC[C@@H]3O)c(=O)c3ccccc32)cc1` (racemic) [Example 82, 1-[4-(1,1-difluoroethyl)-benzyl]-N-[(1,2-trans)-2-hydroxycyclohexyl]-4-oxo-1,4-dihydroquinoline-3-carboxamide], for which the EC50 under setting [1] was found to be 170 nM. Further, where the note is “CHO-K1 cells expressing hCHRM1”, the “activity (%) at 10 μM” value is 83%.

For the compound `COc1ccc(Cn2cc(C(=O)N[C@H]3CC(F)(F)CC[C@@H]3O)c(=O)c3c(F)ccc(F)c32)cc1` (racemic) [Example 84, N-[(1,2-trans)-5,5-difluoro-2-hydroxycyclohexyl]-5,8-difluoro-1-(4-methoxybenzyl)-4-oxo-1,4-dihydroquinoline-3-carboxamide], the EC50 turned out to be 91 nM. Moreover, the “activity (%) at 10 μM” value (CHO-K1 cells expressing hCHRM1) worked out at 85%.

On to `O=C(N[C@H]1CCCC[C@@H]1O)c1cn(Cc2ccc(-c3ccn[nH]3)cc2)c2ccccc2c1=O` (racemic) [Example 85, N-[(1,2-trans)-2-hydroxycyclohexyl]-4-oxo-1-[4-(1H-pyrazol-5-yl)benzyl]-1,4-dihydroquinoline-3-carboxamide], for which the EC50 stood at 4.7 nM. Besides, the “activity (%) at 10 μM” value (CHO-K1 cells expressing hCHRM1) amounted to 90%.

`NC(=O)c1ccc(Cn2cc(C(=O)N[C@H]3CCCC[C@@H]3F)c(=O)c3ccccc32)cc1` (racemic) [Example 88, 1-(4-carbamoylbenzyl)-N-[(1,2-trans)-2-fluorocyclohexyl]-4-oxo-1,4-dihydroquinoline-3-carboxamide]: the EC50 is 12 nM. The “activity (%) at 10 μM” value (CHO-K1 cells expressing hCHRM1) stood at 101%.

As to `Cc1cc(-c2ccc(Cn3cc(C(=O)N[C@H]4CCC[C@@H]4O)c(=O)c4ccccc43)cc2)ccn1` (racemic) [Example 93, N-[(1,2-trans)-2-hydroxycyclopentyl]-1-[4-(2-methylpyridin-4-yl)benzyl]-4-oxo-1,4-dihydroquinoline-3-carboxamide], the EC50 came to 12 nM. The “activity (%) at 10 μM” value (CHO-K1 cells expressing hCHRM1) stood at 95%.

On to `COc1ccc(Cn2cc(C(N)=O)c(=O)c3c(F)ccc(F)c32)cc1` [Example 1, 5,8-difluoro-1-(4-methoxybenzyl)-4-oxo-1,4-dihydroquinoline-3-carboxamide], for which the EC50 under setting [1] was found to be 630 nM. For the same compound, the “activity (%) at 10 μM” value (CHO-K1 cells expressing hCHRM1) is on record as 90%.

In the case of `CNC(=O)c1cn(Cc2ccc(OC)cc2)c2c(F)ccc(F)c2c1=O` [Example 7, 5,8-difluoro-1-(4-methoxybenzyl)-N-methyl-4-oxo-1,4-dihydroquinoline-3-carboxamide], the EC50 under setting [1] came to 3500 nM. Moreover, the “activity (%) at 10 μM” value (CHO-K1 cells expressing hCHRM1) worked out at 71%.

Turning to `COc1ccc(Cn2cc(C(=O)NC3CC3)c(=O)c3c(F)ccc(F)c32)cc1` [Example 8, N-cyclopropyl-5,8-difluoro-1-(4-methoxybenzyl)-4-oxo-1,4-dihydroquinoline-3-carboxamide], the EC50 under setting [1] turned out to be 2000 nM. Moreover, the “activity (%) at 10 μM” value (CHO-K1 cells expressing hCHRM1) was found to be 100%.

On to `COc1ccc(Cn2cc(C(=O)NN)c(=O)c3ccccc32)cc1` [Example 13, 1-(4-methoxybenzyl)-4-oxo-1,4-dihydroquinoline-3-carbohydrazide], for which the EC50 under setting [1] turned out to be 6100 nM. The “activity (%) at 10 μM” value (CHO-K1 cells expressing hCHRM1) came to 77%.

`COc1ccc(Cn2cc(C(=O)NC3CCCCC3)c(=O)c3c(F)ccc(F)c32)cc1` [Example 14, N-cyclohexyl-5,8-difluoro-1-(4-methoxybenzyl)-4-oxo-1,4-dihydroquinoline-3-carboxamide]: the EC50 under setting [1] was 920 nM. The “activity (%) at 10 μM” value (CHO-K1 cells expressing hCHRM1) is 96%.

In the case of `COc1ccc(Cn2cc(C(=O)NCCO)c(=O)c3c(F)ccc(F)c32)cc1` [Example 17, 5,8-difluoro-N-(2-hydroxyethyl)-1-(4-methoxybenzyl)-4-oxo-1,4-dihydroquinoline-3-carboxamide], the EC50 under setting [1] stood at 5800 nM. For the same compound, the “activity (%) at 10 μM” value (CHO-K1 cells expressing hCHRM1) is 69%.

For `COCCNC(=O)c1cn(Cc2ccc(OC)cc2)c2c(F)ccc(F)c2c1=O` [Example 20, 5,8-difluoro-1-(4-methoxybenzyl)-N-(2-methoxyethyl)-4-oxo-1,4-dihydroquinoline-3-carboxamide], the EC50 under setting [1] was 5000 nM. The “activity (%) at 10 μM” value (CHO-K1 cells expressing hCHRM1) worked out at 72%.

On to `COc1ccc(Cn2cc(C(=O)NN3CCCCC3)c(=O)c3c(F)ccc(F)c32)cc1` [Example 21, 5,8-difluoro-1-(4-methoxybenzyl)-4-oxo-N-piperidin-1-yl-1,4-dihydroquinoline-3-carboxamide], for which the EC50 under setting [1] was 280 nM. Under “CHO-K1 cells expressing hCHRM1”, the “activity (%) at 10 μM” value was 97%.

Take `COc1ccc(Cn2cc(C(=O)N[C@H]3CCCC[C@@H]3O)c(=O)c3c(F)ccc(F)c32)cc1` [Example 27, 5,8-difluoro-N-[(1S,2S)-2-hydroxycyclohexyl]-1-(4-methoxybenzyl)-4-oxo-1,4-dihydroquinoline-3-carboxamide]: the EC50 turned out to be 38 nM. Moreover, where the note is “CHO-K1 cells expressing hCHRM1”, the “activity (%) at 10 μM” value came out at 102%.

In the case of `COc1ccc(Cn2nc(C(=O)N[C@H]3CCCC[C@@H]3O)c(=O)c3ccccc32)cc1` [Example 51, N-[(1S,2S)-2-hydroxycyclohexyl]-1-(4-methoxybenzyl)-4-oxo-1,4-dihydrocinnoline-3-carboxamide], the EC50 under setting [1] was 68 nM. Where the note is “CHO-K1 cells expressing hCHRM1”, the “activity (%) at 10 μM” value was found to be 97%.
